Test results as given in PMC6792352, “Limited Chemical Structural Diversity Found to Modulate Thyroid Hormone Receptor in the Tox21 Chemical Library” (Environmental Health Perspectives, 2019).
Counter-ions that a name gives are not always drawn.

Test: in vitro
Details: rat, gh3-tre-luc cells

Compound	CC50 at 24 h (AC50 (uM) modified / 1000) [µM]	also measured
CCCCCCCCC(CCCCCC)C(=O)O (stereo not shown) [2-Hexyldecanoic acid]	> 90	
CCCCCCOCCO [2-Hexyloxyethanol]	> 90	
NNc1nc(-c2ccc(N)cc2)cs1 [2-Hydrazino-4-(4-aminophenyl) thiazole]	74.8	
NNc1nc(-c2ccc([N+](=O)[O-])cc2)cs1 [2-Hydrazino-4-(4-nitrophenyl)thiazole]	58.8	
NNc1nc(-c2ccccc2)cs1 [2-Hydrazino-4-phenylthiazole]	47	
CC(C)(O)C(=O)c1ccc(OCCO)cc1 [2-Hydroxy-1-[4-(2-hydroxyethoxy)phenyl]-2-methylpropan-1-one]	> 90	
CC(C)(O)C#N [2-Hydroxy-2-methylpropanenitrile]		CC50 at 24 h (AC50 (uM) modified / 1000, Tox21_110001=Tox21_201490, viability, 1 nM T3 present, 24 h): > 100 µM; CC50 at 24 h (AC50 (uM) modified / 1000, Tox21_110001=Tox21_303256, viability, 1 nM T3 present, 24 h): > 90 µM
CC(C)(O)C(=O)c1ccccc1 [2-Hydroxy-2-methylpropiophenone]	> 90	
Cc1cccc(C(=O)O)c1O [2-Hydroxy-3-methylbenzoic acid]	> 50	
COc1ccc(C(=O)c2ccccc2)c(O)c1 [2-Hydroxy-4-methoxybenzophenone]	> 50	
Cc1ccc(O)c(C(=O)c2ccccc2)c1 [2-Hydroxy-5-methylbenzophenone]	> 90	
CC(=O)c1ccccc1O [2-Hydroxyacetophenone]	> 90	
O=C1c2ccccc2C(=O)c2cc(O)ccc21 [2-Hydroxyanthraquinone]	> 90	
N#Cc1ccccc1O [2-Hydroxybenzonitrile]	> 90	
O=C(c1ccccc1)c1ccccc1O [2-Hydroxybenzophenone]	> 90	
C=CC(=O)OCCO [2-Hydroxyethyl acrylate]		CC50 at 24 h (AC50 (uM) modified / 1000, Tox21_110001=Tox21_201430, viability, 1 nM T3 present, 24 h): > 90 µM
OCCSSCCO [2-Hydroxyethyl disulfide]		CC50 at 24 h (AC50 (uM) modified / 1000, Tox21_110001=Tox21_302181, viability, 1 nM T3 present, 24 h): > 90 µM
C=C(C)C(=O)OCCO [2-Hydroxyethyl methacrylate]	> 90	
CCCCCCCCCCCCCCCCCC(=O)OCCO [2-Hydroxyethyl octadecanoate]	> 50	
CCCCCCCCSCCO [2-Hydroxyethyl octyl sulfide]	> 90	
O=C(OCCO)c1ccccc1O [2-Hydroxyethyl salicylate]	> 50	
NCCO [2-Hydroxyethylammonium formate]	> 90	
NNCCO [2-Hydroxyethylhydrazine]		CC50 at 24 h (AC50 (uM) modified / 1000, Tox21_110001=Tox21_301204, viability, 1 nM T3 present, 24 h): > 90 µM
Oc1ccc2c(c1)Cc1ccccc1-2 [2-Hydroxyfluorene]	77.9	

Compound	CC50 at 24 h (AC50 (uM) modified / 1000) [µM]	also measured
CC(C)(O)C(=O)O [2-Hydroxyisobutyric acid]	> 90	
C=C(C)C(=O)OCC(C)O (stereo not shown) [2-Hydroxypropyl 2-methylacrylate]	> 90	
ICCc1ccccc1 [2-Iodoethylbenzene]	> 90	
O=C(O)CNC(=O)c1ccccc1I [2-Iodohippuric acid]	> 50	
CC(C)OCCO [2-Isopropoxyethanol]	> 90	
CC(C)Oc1ccccc1O [2-Isopropoxyphenol]	> 90	
Cc1cc(=O)nc(C(C)C)[nH]1 [2-Isopropyl-6-methyl-4-pyrimidone]	> 90	
CC(C)c1ccccc1O [2-Isopropylphenol]	> 90	
CC(C)CC(=O)C1C(=O)c2ccccc2C1=O [2-Isovaleryl-1,3-indanedione]	> 90	
Sc1nc2ccccc2[nH]1 [2-Mercaptobenzimidazole]		CC50 at 24 h (AC50 (uM) modified / 1000, Tox21_110001=Tox21_201828, viability, 1 nM T3 present, 24 h): > 90 µM
Sc1nc2ccccc2s1 [2-Mercaptobenzothiazole]	> 50	
COc1cc2c(cc1N)oc1ccccc12 [2-Methoxy-3-aminodibenzofuran]	> 90	
COc1cc(C)ccc1C(C)C [2-Methoxy-4-methyl-1-(propan-2-yl)benzene]	> 90	
COc1cc(C)ccc1O [2-Methoxy-4-methylphenol]	> 90	
COc1cc([N+](=O)[O-])ccc1N [2-Methoxy-4-nitroaniline]	40.9	
CCCc1ccc(O)c(OC)c1 [2-Methoxy-4-propylphenol]	> 90	
COc1ccc(C)cc1N [2-Methoxy-5-methylaniline]	> 90	
COc1ccc([N+](=O)[O-])cc1N [2-Methoxy-5-nitroaniline]	> 90	
COc1ccccc1N [2-Methoxyaniline hydrochloride]	> 90	
COc1ccccc1C=CC=O [2-Methoxycinnamaldehyde]	77.5	
COCCO [2-Methoxyethanol]	> 90	
COCCOC(=O)CC#N [2-Methoxyethyl cyanoacetate]	> 90	
COc1ccccc1O [2-Methoxyphenol]	> 90	
Cc1c(O)cccc1O [2-Methyl-1,3-benzenediol]	> 90	
